Laboratory results from patent US8148365B2 (priority 2006, dated 2012).
Counter-ions that a name gives are not always drawn.

Target: α7-subtype of nicotinic receptors (Rattus norvegicus, UniProt Q05941)
Assay: biochemical
Format: binding

Sequence of α7-subtype of nicotinic receptors (Q05941 23-502): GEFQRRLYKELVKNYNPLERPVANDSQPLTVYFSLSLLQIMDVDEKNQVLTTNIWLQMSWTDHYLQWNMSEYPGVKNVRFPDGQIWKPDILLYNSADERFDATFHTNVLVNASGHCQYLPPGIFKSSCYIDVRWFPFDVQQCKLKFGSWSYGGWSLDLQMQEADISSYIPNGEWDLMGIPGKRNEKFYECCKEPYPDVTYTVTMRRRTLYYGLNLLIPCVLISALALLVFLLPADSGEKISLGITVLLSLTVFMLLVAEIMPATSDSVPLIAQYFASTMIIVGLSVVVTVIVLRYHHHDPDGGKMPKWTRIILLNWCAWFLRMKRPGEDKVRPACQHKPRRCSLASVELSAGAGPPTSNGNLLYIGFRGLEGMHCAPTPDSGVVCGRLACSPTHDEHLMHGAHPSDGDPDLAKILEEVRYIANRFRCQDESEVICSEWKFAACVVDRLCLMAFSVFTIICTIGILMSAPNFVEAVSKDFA

Q: Which IC50 does the source give for `O=C(Nc1cnc(N2CCN3CCC2CC3)nc1)c1ccccc1` [Compound 1, N-[2-(1,4-Diaza-bicyclo[3.2.2]non-4-yl)-pyrimidin-5-yl]-benzamide hydrochloric acid salt] here?
A: < 0.1 µM
